For 16 compounds, IC50 and Kp results are on record in patent publication US11685744B2, “CDK inhibitors and their use as pharmaceuticals” (Prelude Therapeutics, Incorporated, priority 2020, dated 2023).

In data set [1] the target is CDK4/Cyclin D1 (Homo sapiens (Human), UniProt P11802). Put plainly: CDK4/CyclinD1 enzymatic activity assay (TR-FRET). In kind it is biochemical. Conditions: ATP 2 mM, read-out: CDK4_D1 IC50. A digest of the protocol: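 Insect-cell CDK4/Cyclin D1 (1 nM) with ULight-4E-BP1 (100 nM) and 2 mM ATP in HEPES pH 7.4 buffer, preincubated 20 min with compound (9-dose, 3-fold dilutions); 10 mM MgCl2 started the reaction, run 60 min at 37 °C. EDTA/Eu-anti-phospho-4E-BP1 TR-FRET detection; IC50 from 4-parameter Hill fit.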

For data set [2], the target named is CDK6/Cyclin D1 (Homo sapiens (Human), UniProt Q00534). Put plainly: CDK6/CyclinD1 enzymatic activity assay (TR-FRET). In kind it is biochemical. Conditions: ATP 250 μM, read-out: CDK6_D1 IC50. The method, then:
CDK6/CyclinD1 Enzymatic Activity Assay
The inhibitory activity of compounds was evaluated in vitro using TR-FRET assay with white 384-well low volume microplate (Greiner Bio-One). CDK6/Cyclin D1 catalyzed phosphorylation of peptide in the presence and absence of compounds was measured and used in IC50 determination. Recombinant protein complex CDK6/Cyclin D1, expressed from insect cell, was purchased from ProQinase. Testing compounds were dissolved in DMSO at 0.1 mM and tested in 9-dose IC50 mode. The reaction mixture was prepared by mixing CDK6/Cyclin D1 (1 nM final), ULight-4E-BP1 (100 nM final, Perkinelmer, TRF0128-D), and ATP (250 μM final) in assay buffer (20 mM of HEPES pH 7.4, 1 mM of EGTA, 0.05% BSA, 0.005% Tween 20, and 1 mM TCEP). The compound of interest in DMSO was added to each well in 3-fold serial dilution by dispenser (TECAN D300E). After 20 minutes preincubation at room temperature, 0.1 μL MgCl2 (10 mM final) was added to initiate the reaction. Following a 60 minutes incubation at 37° C., the reaction was stopped by addition of 2 μL of quenching buffer consisting of Lance detection buffer (Perkinelmer CR97-100C), 2 nM LANCE Ultra Europium-anti-P-4E-BP1 (Perkinelmer, TRF0216-D), 10 mM EDTA, and incubate at room temperature for additional 60 minutes in dark. The reaction signal was measured by Envision multimode plate reader (PerkinElmer, 2102-0010). IC50 values were determined by fitting the data to the standard 4 parameters with Hill Slope using GraphPad Prism software.

For data set [3], the system named is MCF7 adenocarcinoma cell line. Kind of data set: Cell proliferation studies in MCF7 cells (ATP-Lite, 10 days). In kind it is cell-based. Conditions: Homo sapiens, 240 h, read-out: PROLIFERATION_CTG_MCF7 IC50. The gist of the method:
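Cells were seeded at 100 or 200 per well in DMEM with 10% FBS and dosed in quadruplicate over a 9-point 3-fold dilution. Incubation lasted 10 days at 37 °C, with media exchange and re-dosing on day 5. Viability was read by ATP-Lite luminescence and normalised to background and DMSO, giving IC50.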

The nature of data set [4]: Brain-to-plasma ratio (Kp) determination in Sprague-Dawley rats. The following applies: male, rat, brain (homogenate) versus plasma, po, 10 mg/kg.
Procedure: The brain-to-plasma ratio (Kp) was determined in male Sprague-Dawley rats (7-9 weeks old) four hours after a single oral dose. Rats were acclimated and given free access to standard rodent chow and water throughout the entire study. Test articles were formulated as a solution at 0.3, 0.4, 0.5, or 1.0 mg/mL in a vehicle comprised of 10:15:75 (v:v:v) dimethylacetamide (DMA):Solutol HS15:water and delivered orally at a rate of 10 mL/kg to three rats to achieve final doses of 3, 4, 5, or 10 mg/kg, respectively. At 4 hours post-dose, blood samples were collected via jugular vein cannula into tubes containing K2EDTA as the anticoagulant and stored on ice. Blood samples were then centrifuged at 4° C. at 6000 rpm for 5 minutes, and the resulting plasma was placed into tubes and stored frozen at −80° C. until analysis. Whole brain samples were also collected at 4 hours post-dose. The weight of each brain was measured and recorded, and samples were immediately stored on dry ice. Brain samples were then transferred to storage at −80° C. until analysis.
Prior to analysis, brain samples were combined with water (4 mL/1 gram of brain) and homogenized. Prior to injection, plasma and brain homogenate samples and standards were prepared for analysis by precipitation with acetonitrile or 1:1 (v:v) methanol:acetonitrile. Samples were then thoroughly mixed, centrifuged at 4000 rpm for 15 minutes, and the resulting supernatant was transferred for analysis. Test article concentrations in plasma and brain homogenate were then determined by LC-MS/MS and quantified against calibration standards prepared to known concentrations in matched blank (analyte-free) biological matrix. The Kp was then determined by dividing the dilution-corrected brain concentration by the plasma concentration from each rat. A brain density of 1 gram/mL was assumed for all calculations.

Chain of CDK6/Cyclin D1 (Q00534 whole entry): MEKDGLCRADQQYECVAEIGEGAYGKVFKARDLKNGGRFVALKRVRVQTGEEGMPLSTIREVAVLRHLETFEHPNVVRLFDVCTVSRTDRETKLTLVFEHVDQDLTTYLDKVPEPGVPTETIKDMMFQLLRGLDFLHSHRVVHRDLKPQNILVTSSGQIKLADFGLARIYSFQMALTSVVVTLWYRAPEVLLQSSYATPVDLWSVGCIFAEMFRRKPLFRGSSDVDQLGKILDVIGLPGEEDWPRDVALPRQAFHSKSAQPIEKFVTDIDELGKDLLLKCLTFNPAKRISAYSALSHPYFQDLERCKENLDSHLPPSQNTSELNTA
Chain of CDK6/Cyclin D1 (P24385 whole entry partner): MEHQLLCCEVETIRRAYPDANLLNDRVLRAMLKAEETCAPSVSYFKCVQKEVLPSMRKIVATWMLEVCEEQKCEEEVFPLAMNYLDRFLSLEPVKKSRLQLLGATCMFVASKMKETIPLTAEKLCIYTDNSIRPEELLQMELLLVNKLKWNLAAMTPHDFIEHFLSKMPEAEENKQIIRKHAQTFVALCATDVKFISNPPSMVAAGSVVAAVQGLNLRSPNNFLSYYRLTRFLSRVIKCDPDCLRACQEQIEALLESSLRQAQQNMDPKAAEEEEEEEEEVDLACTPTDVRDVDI
Chain of CDK4/Cyclin D1 (P11802 whole entry): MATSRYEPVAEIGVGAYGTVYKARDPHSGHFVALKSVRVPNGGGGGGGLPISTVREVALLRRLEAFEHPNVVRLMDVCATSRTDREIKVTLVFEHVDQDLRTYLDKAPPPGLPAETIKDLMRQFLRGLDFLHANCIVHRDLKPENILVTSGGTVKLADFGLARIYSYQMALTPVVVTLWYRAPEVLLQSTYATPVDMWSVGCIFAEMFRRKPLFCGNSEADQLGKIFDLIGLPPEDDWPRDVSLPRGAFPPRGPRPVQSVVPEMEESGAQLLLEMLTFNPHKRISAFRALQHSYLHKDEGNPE
Chain of CDK4/Cyclin D1 (P24385 whole entry partner): as the sequence (P24385 whole entry partner) above

Regarding `CCN1CCN(C(=O)c2ccc(Nc3ncc(F)c(-c4cc5nc(C)n(C(C)C)c5s4)n3)nc2)CC1` [Example 54, (4-Ethylpiperazin-1-yl)-[6-[[5-fluoro-4-(2-methyl-3-propan-2-ylthieno[2,3-d]imidazol-5-yl)pyrimidin-2-yl]amino]pyridin-3-yl]methanone], the IC50 in data set [1] was no more than 20 nM; in data set [2], 20 to 200 nM; in data set [3] it was 20 to 200 nM. Further, the Kp at 4 h in data set [4] is less than 1.

As for `CCN1CC2(C1)CN(c1ccc(Nc3ncc(F)c(-c4sc5c(C(C)C)n(C)nc5c4C)n3)nc1)C2` [Example 55, 4-(2,6-Dimethyl-3-propan-2-ylthieno[3,2-c]pyrazol-5-yl)-N-[5-(6-ethyl-2,6-diazaspiro[3.3]heptan-2-yl)pyridin-2-yl]-5-fluoropyrimidin-2-amine], the figures for the IC50 in data set [1], in data set [2] and in data set [3] were no more than 20 nM, no more than 20 nM and 20 to 200 nM, respectively. Also, the Kp at 4 h in data set [4] was greater than 3.

As to `Cc1c(-c2nc(Nc3ccc(C4CCN(C)CC4)cn3)ncc2F)sc2c(C(C)C)cn(C)c(=O)c12` [Example 56, 2-(5-Fluoro-2-((5-(1-methylpiperidin-4-yl)pyridin-2-yl)amino)pyrimidin-4-yl)-7-isopropyl-3,5-dimethylthieno[3,2-c]pyridin-4(5H)-one], the IC50 in data set [1] is no more than 20 nM; in data set [2], no more than 20 nM; in data set [3], 20 to 200 nM. Also, the partition ratio (Kp) at 4 h in data set [4] was greater than 3.

With `CCN1CC2(C1)CN(c1ccc(Nc3ncc(F)c(-c4sc5c(C(C)C)cn(C)c(=O)c5c4C)n3)nc1)C2` [Example 57, 2-(2-((5-(6-Ethyl-2,6-diazaspiro[3.3]heptan-2-yl)pyridin-2-yl)amino)-5-fluoropyrimidin-4-yl)-7-isopropyl-3,5-dimethylthieno[3,2-c]pyridin-4(5H)-one], the IC50 in data set [1] was no more than 20 nM; in data set [2], no more than 20 nM; in data set [3] it was 20 to 200 nM. The Kp at 4 h in data set [4] was 1 to 3.

With `Cc1c(-c2nc(Nc3ccc(C4CCN(C)CC4)cn3)ncc2F)sc2c(C(C)C)c[nH]c(=O)c12` [Example 60, 2-(5-Fluoro-2-((5-(1-methylpiperidin-4-yl)pyridin-2-yl)amino)pyrimidin-4-yl)-7-isopropyl-3-methylthieno[3,2-c]pyridin-4(5H)-one], the IC50 in data set [1], in data set [2] and in data set [3] was no more than 20 nM each time. The Kp at 4 h in data set [4] was less than 1.

As for `Cc1c(-c2nc(Nc3ccc(N4CC5(CCN(C)C5)C4)cn3)ncc2F)sc2c(C(C)C)cn(C)c(=O)c12` [Example 61, 2-(5-Fluoro-2-((5-(6-methyl-2,6-diazaspiro[3.4]octan-2-yl)pyridin-2-yl)amino)pyrimidin-4-yl)-7-isopropyl-3,5-dimethylthieno[3,2-c]pyridin-4(5H)-one], the IC50 in data set [1], in data set [2] and in data set [3] was no more than 20 nM throughout. Also, the Kp at 4 h in data set [4] was in the range of 1 to 3.

As to `Cc1nc2cc(-c3nc(Nc4ccc(CN5CCN(CC(F)F)CC5)cn4)ncc3F)sc2n1C(C)C` [Example 64, N-[5-[[4-(2,2-Difluoroethyl)piperazin-1-yl]methyl]pyridin-2-yl]-5-fluoro-4-(2-methyl-3-propan-2-ylthieno[2,3-d]imidazol-5-yl)pyrimidin-2-amine], the IC50 in data set [1] fell in the range of 20 to 200 nM; in data set [2] it was 20 to 200 nM; in data set [3], 200 to 2000 nM. For the same compound, in data set [4], the Kp at 4 h was less than 1.

For the compound `Cc1c(-c2nc(Nc3ccc(N4CCC(N(C)C)C4)cn3)ncc2F)sc2c1nc(C)n2C(C)C` (stereo not shown) [Example 73, N-[5-[3-(Dimethylamino)pyrrolidin-1-yl]pyridin-2-yl]-4-(2,6-dimethyl-3-propan-2-ylthieno[2,3-d]imidazol-5-yl)-5-fluoropyrimidin-2-amine], the values for the IC50 in data set [1], in data set [2] and in data set [3] were no more than 20 nM, 20 to 200 nM and 20 to 200 nM, respectively. Moreover, the Kp at 4 h in data set [4] was in the range of 1 to 3.

Take `CCN1C2CC1CN(c1ccc(Nc3ncc(F)c(-c4cc5nc(C)n(C(C)C)c5s4)n3)nc1)C2` [Example 74, N-[5-(6-ethyl-3,6-Diazabicyclo[3.1.1]heptan-3-yl)pyridin-2-yl]-5-fluoro-4-(2-methyl-3-propan-2-ylthieno[2,3-d]imidazol-5-yl)pyrimidin-2-amine]: the IC50 in data set [1] was no more than 20 nM; in data set [2], 20 to 200 nM; in data set [3], 20 to 200 nM. Moreover, the partition ratio (Kp) at 4 h in data set [4] was less than 1.

Consider `Cc1c(-c2nc(Nc3ccc(N4CC5(CCN(C)CC5)C4)cn3)ncc2F)sc2c(C(C)C)cn(C)c(=O)c12` [Example 77, 2-(5-Fluoro-2-((5-(7-methyl-2,7-diazaspiro[3.5]nonan-2-yl)pyridin-2-yl)amino)pyrimidin-4-yl)-7-isopropyl-3,5-dimethylthieno[3,2-c]pyridin-4(5H)-one], for which the IC50 in data set [1] is no more than 20 nM; in data set [2], no more than 20 nM; in data set [3] it was 20 to 200 nM. The partition ratio (Kp) at 4 h in data set [4] lay within 1 to 3.

In the case of `Cc1c(-c2nc(Nc3ccc(N4C[C@H]5CN(C)C[C@H]5C4)cn3)ncc2F)sc2c(C(C)C)cn(C)c(=O)c12` [Example 78, 2-(5-Fluoro-2-((5-((3aR,6aS)-5-methylhexahydropyrrolo[3,4-c]pyrrol-2(1H)-yl)pyridin-2-yl)amino)pyrimidin-4-yl)-7-isopropyl-3,5-dimethylthieno[3,2-c]pyridin-4(5H)-one], the results for the IC50 in data set [1], in data set [2] and in data set [3] were no more than 20 nM, no more than 20 nM and 20 to 200 nM, respectively. The Kp at 4 h in data set [4] lay in the range of 1 to 3.

Consider `Cc1c(-c2nc(Nc3ccc(N4C[C@@H]5CN(C)C[C@H]5C4)cn3)ncc2F)sc2c(C(C)C)cn(C)c(=O)c12` [Example 79, 2-(5-Fluoro-2-((5-((3aS,6aS)-5-methylhexahydropyrrolo[3,4-c]pyrrol-2(1H)-yl)pyridin-2-yl)amino)pyrimidin-4-yl)-7-isopropyl-3,5-dimethylthieno[3,2-c]pyridin-4(5H)-one], for which the figures for the IC50 in data set [1], in data set [2] and in data set [3] were no more than 20 nM, no more than 20 nM and 20 to 200 nM, respectively. The concentration ratio (Kp) at 4 h in data set [4] was less than 1.

As for `[2H]C([2H])([2H])N1CCC(c2ccc(Nc3ncc(F)c(-c4sc5c(C(C)C)cn(C)c(=O)c5c4C)n3)nc2)CC1` [Example 82, 2-(5-Fluoro-2-((5-(1-(methyl-d3)piperidin-4-yl)pyridin-2-yl)amino)pyrimidin-4-yl)-7-isopropyl-3,5-dimethylthieno[3,2-c]pyridin-4(5H)-one], the IC50 is no more than 20 nM in data set [1], no more than 20 nM in data set [2] and 20 to 200 nM in data set [3]. In addition, the partition ratio (Kp) at 4 h in data set [4] was greater than 3.

For `Cc1c(-c2nc(Nc3ccc(C4CCN(C5CCOC5)CC4)cn3)ncc2F)sc2c(C(C)C)cn(C)c(=O)c12` (stereo not shown) [Example 84, 2-(5-Fluoro-2-((5-(1-(tetrahydrofuran-3-yl)piperidin-4-yl)pyridin-2-yl)amino)pyrimidin-4-yl)-7-isopropyl-3,5-dimethylthieno[3,2-c]pyridin-4(5H)-one], the IC50 is no more than 20 nM in data set [1], no more than 20 nM in data set [2] and 20 to 200 nM in data set [3]. The partition ratio (Kp) at 4 h in data set [4] fell in the range of 1 to 3.

As to `CC(C)c1cn(C)c(=O)c2cc(-c3nc(Nc4ccc(C5CCN(C)CC5)cn4)ncc3F)sc12` [Example 86, 2-(5-Fluoro-2-((5-(1-methylpiperidin-4-yl)pyridin-2-yl)amino)pyrimidin-4-yl)-7-isopropyl-5-methylthieno[3,2-c]pyridin-4(5H)-one], the IC50 in data set [1] was no more than 20 nM; in data set [2], 20 to 200 nM; in data set [3], 20 to 200 nM. Moreover, the concentration ratio (Kp) at 4 h in data set [4] fell in the range of 1 to 3.

In the case of `CCN1CCC(c2ccc(Nc3ncc(F)c(-c4sc5c(C(C)C)cn(C)c(=O)c5c4C)n3)nc2)CC1` [Example 87, 2-(2-((5-(1-Ethylpiperidin-4-yl)pyridin-2-yl)amino)-5-fluoropyrimidin-4-yl)-7-isopropyl-3,5-dimethylthieno[3,2-c]pyridin-4(5H)-one], the IC50 is no more than 20 nM in data set [1], no more than 20 nM in data set [2] and 20 to 200 nM in data set [3]. In addition, the Kp at 4 h in data set [4] was in the range of 1 to 3.
